Laboratory results taken from ChEMBL document CHEMBL1212738, “Phenotypic and genotypic characterization of Enterobacteriaceae with decreased susceptibility to carbapenems: results from large hospital-based surveillance studies in China” (2010).
≈ marks a conversion by molar mass, not a printed value.

What was measured:
Klebsiella pneumoniae [1] = test: Antimicrobial activity against carbapenem-resistant Klebsiella pneumoniae PU4 deficient in SHV-1, DHA-1, ompK35/36 by CLSI method; assay type: functional
Enterobacter cloacae [2] = test: Antimicrobial activity against carbapenem-resistant Enterobacter cloacae SZ93 deficient in ompC by CLSI method; assay type: functional
Klebsiella pneumoniae [3] = test: Antimicrobial activity against carbapenem-resistant Klebsiella pneumoniae ZJ70 deficient in KPC-2, SHV-11, CTX-M-14, ompK35/36 by CLSI method; assay type: functional
Citrobacter freundii [4] = test: Antimicrobial activity against Citrobacter freundii SZ63T expressing IMP-4, qnrS1by CLSI method; assay type: functional
Klebsiella pneumoniae [5] = test: Antimicrobial activity against Klebsiella pneumoniae FZ49T expressing IMP-8, TEM-1, CTX-M-14, qnrB2, aac(6')-Ib by CLSI method; assay type: functional
Enterobacter cloacae [6] = test: Antimicrobial activity against carbapenem-resistant Enterobacter cloacae GX56 deficient in ompC and expressing low levels of ompF DE by CLSI method; assay type: functional
Klebsiella pneumoniae [7] = test: Antimicrobial activity against carbapenem-resistant Klebsiella pneumoniae PU105 deficient TEM-1, SHV-12, CTX-M-14, DHA-1, qnrB10/B4-like, aac(6')-Ib-cr, ompK35/36 by CLSI method; assay type: functional
Escherichia coli [8] = test: Antimicrobial activity against carbapenem-resistant Escherichia coli PU60 deficient in TEM-1, CMY-2, ompC/F by CLSI method; assay type: functional
Klebsiella pneumoniae [9] = test: Antimicrobial activity against carbapenem-resistant Klebsiella pneumoniae SX67 deficient in SHV-2, CTX-M-14, DHA-1, qnrB6/S1, aac(6')-Ib-cr, ompK35/36 by CLSI method; assay type: functional
Klebsiella aerogenes = test: Antimicrobial activity against carbapenem-resistant Enterobacter aerogenes PU41 deficient in CTX-M-14, DHA-1, qnrS1, ompC DEc, ompF by CLSI method; assay type: functional
Klebsiella pneumoniae [10] = test: Antimicrobial activity against Klebsiella pneumoniae ZJ99T expressing KPC-2, CTX-M-3, qnrS1 by CLSI method; assay type: functional
Klebsiella pneumoniae [11] = test: Antimicrobial activity against carbapenem-resistant Klebsiella pneumoniae GZ66 deficient in SHV-11, DHA-1, ompK35/36 by CLSI method; assay type: functional
Klebsiella pneumoniae [12] = test: Antimicrobial activity against carbapenem-resistant Klebsiella pneumoniae PU3 deficient in DHA-1, aac(6')-Ib-cr, ompK35/36 by CLSI method; assay type: functional
Enterobacter cloacae [13] = test: Antimicrobial activity against carbapenem-resistant Enterobacter cloacae RJ94 deficient in IMP-4, TEM-1, CTX-M-3, ompC by CLSI method; assay type: functional
Klebsiella pneumoniae [14] = test: Antimicrobial activity against carbapenem-resistant Klebsiella pneumoniae FZ47 deficient in IMP-8, TEM-1, SHV-11, CTX-M-14, qnrB2, aac(6')-Ib, ompK35/36 by CLSI method; assay type: functional
Klebsiella pneumoniae [15] = test: Antimicrobial activity against carbapenem-resistant Klebsiella pneumoniae ZJ68 deficient in CTX-M-15, ompK35/36 by CLSI method
Escherichia coli [16] = test: Antimicrobial activity against Escherichia coli C600 transconjugant SZ62T expressing IMP-4, qnrS1by CLSI method
Escherichia coli [17] = test: Antimicrobial activity against carbapenem-resistant Escherichia coli PU96 deficient in TEM-1, CTX-M-14, CMY-2, ompC/F by CLSI method; assay type: functional
Citrobacter freundii [18] = test: Antimicrobial activity against Citrobacter freundii SZ63 expressing IMP-4, qnrS1by CLSI method; assay type: functional
Klebsiella pneumoniae [19] = test: Antimicrobial activity against Klebsiella pneumoniae WH76 expressing IMP-4, TEM-1, SHV-14, CTX-M-3, qnrS1 by CLSI method; assay type: functional
Citrobacter freundii [20] = test: Antimicrobial activity against Citrobacter freundii SZ62 expressing IMP-4, TEM-1, CMY-2, qnrS1, aac(6')-Ib-cr by CLSI method; assay type: functional
Klebsiella pneumoniae [21] = test: Antimicrobial activity against carbapenem-resistant Klebsiella pneumoniae ZJ71 deficient in KPC-2, TEM-1, SHV-11, CTX-M-14, ompK35 by CLSI method; assay type: functional
Klebsiella pneumoniae [22] = test: Antimicrobial activity against carbapenem-resistant Klebsiella pneumoniae ZJ69 deficient in SHV-28, ompK35/36 by CLSI method; assay type: functional
Klebsiella pneumoniae [23] = test: Antimicrobial activity against carbapenem-resistant Klebsiella pneumoniae GZ83 deficient in SHV-11, CTX-M-14, ompK35/36 by CLSI method; assay type: functional
Escherichia coli [24] = test: Antimicrobial activity against carbapenem-resistant Escherichia coli PU102 deficient in TEM-1, CTX-M-14, CMY-2, aac(6')-Ib, ompC DEc, ompF by CLSI method; assay type: functional
Klebsiella pneumoniae [25] = test: Antimicrobial activity against carbapenem-resistant Klebsiella pneumoniae PU104 deficient in TEM-1, SHV-11, CTX-M-15, qnrS1, ompK35/36 by CLSI method; assay type: functional
Escherichia coli [26] = test: Antimicrobial activity against carbapenem-resistant Escherichia coli PU43 deficient in TEM-1, CTX-M-14, aac(6')-Ib, ompC/F by CLSI method; assay type: functional
Klebsiella pneumoniae [27] = test: Antimicrobial activity against Klebsiella pneumoniae WH97 expressing SHV-33, aac(6')-Ib, ompK35 DE by CLSI method; assay type: functional
Enterobacter cloacae [28] = test: Antimicrobial activity against carbapenem-resistant Enterobacter cloacae WH103 deficient in IMP-4, TEM-1, CTX-M-3, qnrS1, ompC by CLSI method; assay type: functional
Klebsiella pneumoniae [29] = test: Antimicrobial activity against Klebsiella pneumoniae GZ64T expressing IMP-4 by CLSI method; assay type: functional
Escherichia coli [30] = test: Antimicrobial activity against Escherichia coli HX74T expressing CTX-M-3 by CLSI method; assay type: functional

C[C@@H](O)[C@H]1C(=O)N2C(C(=O)O)=C(SCCNC=N)C[C@H]12 [IMIPENEM ANHYDROUS]
MIC (Klebsiella pneumoniae [1]): 16 µg/mL (≈ 53.4 µM) | MIC (Enterobacter cloacae [2]): 4 µg/mL (≈ 13.4 µM) | MIC (Klebsiella pneumoniae [3]): > 256 µg/mL | MIC (Citrobacter freundii [4]): 4 µg/mL (≈ 13.4 µM) | MIC (Klebsiella pneumoniae [5]): 4 µg/mL (≈ 13.4 µM) | MIC (Enterobacter cloacae [6]): 4 µg/mL (≈ 13.4 µM) | MIC (Klebsiella pneumoniae [7]): 32 µg/mL (≈ 107 µM) | MIC (Escherichia coli [8]): 32 µg/mL (≈ 107 µM) | MIC (Klebsiella pneumoniae [9]): 4 µg/mL (≈ 13.4 µM) | MIC (Klebsiella aerogenes): 32 µg/mL (≈ 107 µM) | MIC (Klebsiella pneumoniae [10]): 16 µg/mL (≈ 53.4 µM) | MIC (Klebsiella pneumoniae [11]): 32 µg/mL (≈ 107 µM) | MIC (Klebsiella pneumoniae [12]): 32 µg/mL (≈ 107 µM) | MIC (Enterobacter cloacae [13]): 8 µg/mL (≈ 26.7 µM) | MIC (Klebsiella pneumoniae [14]): 8 µg/mL (≈ 26.7 µM) | MIC (Klebsiella pneumoniae [15]): 4 µg/mL (≈ 13.4 µM) | MIC (Escherichia coli [16]): 4 µg/mL (≈ 13.4 µM) | MIC (Escherichia coli [17]): 32 µg/mL (≈ 107 µM) | MIC (Citrobacter freundii [18]): 4 µg/mL (≈ 13.4 µM) | MIC (Klebsiella pneumoniae [19]): 2 µg/mL (≈ 6.68 µM) | MIC (Citrobacter freundii [20]): 4 µg/mL (≈ 13.4 µM) | MIC (Klebsiella pneumoniae [21]): 16 µg/mL (≈ 53.4 µM) | MIC (Klebsiella pneumoniae [22]): 32 µg/mL (≈ 107 µM) | MIC (Klebsiella pneumoniae [23]): 32 µg/mL (≈ 107 µM) | MIC (Escherichia coli [24]): 16 µg/mL (≈ 53.4 µM) | MIC (Klebsiella pneumoniae [25]): 2 µg/mL (≈ 6.68 µM) | MIC (Escherichia coli [26]): 8 µg/mL (≈ 26.7 µM) | MIC (Klebsiella pneumoniae [27]): 2 µg/mL (≈ 6.68 µM) | MIC (Enterobacter cloacae [28]): 8 µg/mL (≈ 26.7 µM) | MIC (Klebsiella pneumoniae [29]): 2 µg/mL (≈ 6.68 µM)

C[C@@H](O)[C@H]1C(=O)N2C(C(=O)O)=C(S[C@@H]3CN[C@H](C(=O)N(C)C)C3)[C@H](C)[C@H]12 [MEROPENEM]
MIC (Klebsiella pneumoniae [1]): 4 µg/mL (≈ 10.4 µM) | MIC (Enterobacter cloacae [2]): 0.125 µg/mL (≈ 0.326 µM) | MIC (Klebsiella pneumoniae [3]): 256 µg/mL (≈ 668 µM) | MIC (Citrobacter freundii [4]): 4 µg/mL (≈ 10.4 µM) | MIC (Klebsiella pneumoniae [5]): 1 µg/mL (≈ 2.61 µM) | MIC (Enterobacter cloacae [6]): 4 µg/mL (≈ 10.4 µM) | MIC (Escherichia coli [8]): 8 µg/mL (≈ 20.9 µM) | MIC (Klebsiella pneumoniae [9]): 2 µg/mL (≈ 5.22 µM) | MIC (Klebsiella aerogenes): 8 µg/mL (≈ 20.9 µM) | MIC (Klebsiella pneumoniae [11]): 4 µg/mL (≈ 10.4 µM) | MIC (Enterobacter cloacae [13]): 8 µg/mL (≈ 20.9 µM) | MIC (Klebsiella pneumoniae [14]): 2 µg/mL (≈ 5.22 µM) | MIC (Klebsiella pneumoniae [15]): 8 µg/mL (≈ 20.9 µM) | MIC (Escherichia coli [16]): 4 µg/mL (≈ 10.4 µM) | MIC (Escherichia coli [17]): 8 µg/mL (≈ 20.9 µM) | MIC (Citrobacter freundii [18]): 4 µg/mL (≈ 10.4 µM) | MIC (Citrobacter freundii [20]): 4 µg/mL (≈ 10.4 µM) | MIC (Klebsiella pneumoniae [22]): 4 µg/mL (≈ 10.4 µM) | MIC (Klebsiella pneumoniae [23]): 8 µg/mL (≈ 20.9 µM) | MIC (Escherichia coli [30]): 0.064 µg/mL (≈ 0.167 µM) | MIC (Escherichia coli [24]): 8 µg/mL (≈ 20.9 µM) | MIC (Klebsiella pneumoniae [25]): 8 µg/mL (≈ 20.9 µM) | MIC (Klebsiella pneumoniae [27]): 2 µg/mL (≈ 5.22 µM) | MIC (Enterobacter cloacae [28]): 8 µg/mL (≈ 20.9 µM) | MIC (Klebsiella pneumoniae [29]): 2 µg/mL (≈ 5.22 µM)

POLYMYXIN B
MIC (Klebsiella pneumoniae [1]): 0.5 µg/mL | MIC (Enterobacter cloacae [2]): > 32 µg/mL | MIC (Klebsiella pneumoniae [3]): 0.5 µg/mL | MIC (Citrobacter freundii [4]): 0.5 µg/mL | MIC (Klebsiella pneumoniae [5]): 0.25 µg/mL | MIC (Enterobacter cloacae [6]): 0.5 µg/mL | MIC (Klebsiella pneumoniae [7]): 32 µg/mL | MIC (Escherichia coli [8]): 0.5 µg/mL | MIC (Klebsiella pneumoniae [9]): 1 µg/mL | MIC (Klebsiella aerogenes): 0.5 µg/mL | MIC (Klebsiella pneumoniae [10]): 0.25 µg/mL | MIC (Klebsiella pneumoniae [11]): 0.5 µg/mL | MIC (Klebsiella pneumoniae [12]): 0.5 µg/mL | MIC (Enterobacter cloacae [13]): 0.5 µg/mL | MIC (Klebsiella pneumoniae [14]): 1 µg/mL | MIC (Escherichia coli [17]): 0.5 µg/mL | MIC (Citrobacter freundii [18]): 0.5 µg/mL | MIC (Klebsiella pneumoniae [19]): 1 µg/mL | MIC (Citrobacter freundii [20]): 0.5 µg/mL | MIC (Klebsiella pneumoniae [21]): 1 µg/mL | MIC (Klebsiella pneumoniae [22]): 1 µg/mL | MIC (Klebsiella pneumoniae [23]): 1 µg/mL | MIC (Escherichia coli [30]): 0.25 µg/mL | MIC (Escherichia coli [24]): 0.5 µg/mL | MIC (Klebsiella pneumoniae [25]): 0.5 µg/mL | MIC (Escherichia coli [26]): 0.5 µg/mL | MIC (Klebsiella pneumoniae [27]): 0.5 µg/mL | MIC (Enterobacter cloacae [28]): 0.5 µg/mL | MIC (Klebsiella pneumoniae [29]): 0.5 µg/mL
